# Results reported in PubChem BioAssay AID272 (DTP/NCI, 2004).
# Values joined by “and” are separate entries in the source; they are usually repeats but may differ in a detail not shown here. Equal entries are not always repeated. Records with an inconclusive call do not appear.
# Tested on: Lewis lung carcinoma i.m., BDF1 mice, T/C %
# Test: NCI In Vivo Anticancer Drug Screen. Data for tumor model Lewis Lung Carcinoma (intramuscular) in B6D2F1 (BDF1) mice
# Method in brief: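 Value is the ratio of a treated-group measurement (T) to the matching vehicle-control measurement (C), using either survival or tumour size in mice bearing transplanted tumours.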
smiles,measurement,setting,value
CC(CN1CC(=O)NC(=O)C1)N1CC(=O)NC(=O)C1 (stereo unspecified),T/C,"endpoint: mean tumor weight, dose: 6.25 mg/kg/injection, schedule: Q01DX005 (ip), vehicle: Klucel (hydroxypropylcellulose) (HPC), higher = larger tumour",61 % of control
same,T/C,"endpoint: mean tumor weight, dose: 6.25 mg/kg/injection, schedule: Q01DX009 (ip), vehicle: Klucel (hydroxypropylcellulose) (HPC), higher = larger tumour",49 % of control
same,T/C,"endpoint: mean tumor weight, dose: 6.25 mg/kg/injection, schedule: Q01DX011 (ip), vehicle: Klucel (hydroxypropylcellulose) (HPC), higher = larger tumour",73 % of control
same,T/C,"endpoint: mean tumor weight, dose: 6.25 mg/kg/injection, schedule: Q01DX017 (ip), vehicle: Klucel (hydroxypropylcellulose) (HPC), higher = larger tumour",57 % of control
same,T/C,"endpoint: mean tumor weight, dose: 12.5 mg/kg/injection, schedule: Q01DX005 (ip), vehicle: Klucel (hydroxypropylcellulose) (HPC), higher = larger tumour",62 % of control
same,T/C,"endpoint: mean tumor weight, dose: 12.5 mg/kg/injection, schedule: Q01DX009 (ip), vehicle: Klucel (hydroxypropylcellulose) (HPC), higher = larger tumour",59 % of control
same,T/C,"endpoint: mean tumor weight, dose: 12.5 mg/kg/injection, schedule: Q01DX011 (ip), vehicle: Klucel (hydroxypropylcellulose) (HPC), higher = larger tumour",52 % of control
same,T/C,"endpoint: mean tumor weight, dose: 12.5 mg/kg/injection, schedule: Q01DX011 (ip), vehicle: steriod suspending solution, higher = larger tumour",83 % of control and 85 % of control
same,T/C,"endpoint: mean tumor weight, dose: 12.5 mg/kg/injection, schedule: Q01DX017 (ip), vehicle: Klucel (hydroxypropylcellulose) (HPC), higher = larger tumour",49 % of control
same,T/C,"endpoint: mean tumor weight, dose: 25.0 mg/kg/injection, schedule: Q01DX005 (ip), vehicle: Klucel (hydroxypropylcellulose) (HPC), higher = larger tumour",50 % of control
same,T/C,"endpoint: mean tumor weight, dose: 25.0 mg/kg/injection, schedule: Q01DX009 (ip), vehicle: Klucel (hydroxypropylcellulose) (HPC), higher = larger tumour",26 % of control
same,T/C,"endpoint: mean tumor weight, dose: 25.0 mg/kg/injection, schedule: Q01DX011 (ip), vehicle: Klucel (hydroxypropylcellulose) (HPC), higher = larger tumour",39 % of control
same,T/C,"endpoint: mean tumor weight, dose: 25.0 mg/kg/injection, schedule: Q01DX017 (ip), vehicle: Klucel (hydroxypropylcellulose) (HPC), higher = larger tumour",44 % of control
same,T/C,"endpoint: mean tumor weight, dose: 25.0 mg/kg/injection, schedule: Q04DX003 (ip), vehicle: Klucel (hydroxypropylcellulose) (HPC), higher = larger tumour",99 % of control
same,T/C,"endpoint: mean tumor weight, dose: 25.0 mg/kg/injection, schedule: Q04DX005 (ip), vehicle: Klucel (hydroxypropylcellulose) (HPC), higher = larger tumour",104 % of control
same,T/C,"endpoint: mean tumor weight, dose: 50.0 mg/kg/injection, schedule: Q01DX005 (ip), vehicle: Klucel (hydroxypropylcellulose) (HPC), higher = larger tumour",49 % of control
same,T/C,"endpoint: mean tumor weight, dose: 50.0 mg/kg/injection, schedule: Q01DX009 (ip), vehicle: Klucel (hydroxypropylcellulose) (HPC), higher = larger tumour",32 % of control
same,T/C,"endpoint: mean tumor weight, dose: 50.0 mg/kg/injection, schedule: Q01DX011 (ip), vehicle: Klucel (hydroxypropylcellulose) (HPC), higher = larger tumour",14 % of control
same,T/C,"endpoint: mean tumor weight, dose: 50.0 mg/kg/injection, schedule: Q04DX003 (ip), vehicle: Klucel (hydroxypropylcellulose) (HPC), higher = larger tumour",80 % of control
same,T/C,"endpoint: mean tumor weight, dose: 50.0 mg/kg/injection, schedule: Q04DX005 (ip), vehicle: Klucel (hydroxypropylcellulose) (HPC), higher = larger tumour",85 % of control
same,T/C,"endpoint: mean tumor weight, dose: 100.0 mg/kg/injection, schedule: Q01DX005 (ip), vehicle: Klucel (hydroxypropylcellulose) (HPC), higher = larger tumour",21 % of control
same,T/C,"endpoint: mean tumor weight, dose: 100.0 mg/kg/injection, schedule: Q04DX003 (ip), vehicle: Klucel (hydroxypropylcellulose) (HPC), higher = larger tumour",70 % of control and 80 % of control
same,T/C,"endpoint: mean tumor weight, dose: 100.0 mg/kg/injection, schedule: Q04DX005 (ip), vehicle: Klucel (hydroxypropylcellulose) (HPC), higher = larger tumour",78 % of control
same,T/C,"endpoint: mean tumor weight, dose: 200.0 mg/kg/injection, schedule: Q04DX003 (ip), vehicle: Klucel (hydroxypropylcellulose) (HPC), higher = larger tumour",50 % of control and 58 % of control
same,T/C,"endpoint: mean tumor weight, dose: 200.0 mg/kg/injection, schedule: Q04DX005 (ip), vehicle: Klucel (hydroxypropylcellulose) (HPC), higher = larger tumour",56 % of control
same,T/C,"endpoint: mean tumor weight, dose: 400.0 mg/kg/injection, schedule: Q04DX003 (ip), vehicle: Klucel (hydroxypropylcellulose) (HPC), higher = larger tumour",6 % of control
same,T/C,"endpoint: mean tumor weight, dose: 400.0 mg/kg/injection, schedule: Q04DX005 (ip), vehicle: Klucel (hydroxypropylcellulose) (HPC), higher = larger tumour",7 % of control
same,T/C,"endpoint: median survival time, dose: 6.25 mg/kg/injection, schedule: Q01DX005 (ip), vehicle: Klucel (hydroxypropylcellulose) (HPC), higher = longer survival",111 % of control
same,T/C,"endpoint: median survival time, dose: 6.25 mg/kg/injection, schedule: Q01DX009 (ip), vehicle: Klucel (hydroxypropylcellulose) (HPC), higher = longer survival",105 % of control
same,T/C,"endpoint: median survival time, dose: 6.25 mg/kg/injection, schedule: Q01DX011 (ip), vehicle: Klucel (hydroxypropylcellulose) (HPC), higher = longer survival",117 % of control
same,T/C,"endpoint: median survival time, dose: 6.25 mg/kg/injection, schedule: Q01DX017 (ip), vehicle: Klucel (hydroxypropylcellulose) (HPC), higher = longer survival",113 % of control
same,T/C,"endpoint: median survival time, dose: 12.5 mg/kg/injection, schedule: Q01DX005 (ip), vehicle: Klucel (hydroxypropylcellulose) (HPC), higher = longer survival",96 % of control
same,T/C,"endpoint: median survival time, dose: 12.5 mg/kg/injection, schedule: Q01DX009 (ip), vehicle: Klucel (hydroxypropylcellulose) (HPC), higher = longer survival",100 % of control
same,T/C,"endpoint: median survival time, dose: 12.5 mg/kg/injection, schedule: Q01DX011 (ip), vehicle: Klucel (hydroxypropylcellulose) (HPC), higher = longer survival",92 % of control
same,T/C,"endpoint: median survival time, dose: 12.5 mg/kg/injection, schedule: Q01DX017 (ip), vehicle: Klucel (hydroxypropylcellulose) (HPC), higher = longer survival",86 % of control
same,T/C,"endpoint: median survival time, dose: 15.0 mg/kg/injection, schedule: Q01DX011 (ip), vehicle: carboxymethylcellulose (CMC), higher = longer survival",100 % of control
same,T/C,"endpoint: median survival time, dose: 25.0 mg/kg/injection, schedule: Q01DX005 (ip), vehicle: Klucel (hydroxypropylcellulose) (HPC), higher = longer survival",94 % of control
same,T/C,"endpoint: median survival time, dose: 25.0 mg/kg/injection, schedule: Q01DX009 (ip), vehicle: Klucel (hydroxypropylcellulose) (HPC), higher = longer survival",111 % of control
same,T/C,"endpoint: median survival time, dose: 25.0 mg/kg/injection, schedule: Q01DX011 (ip), vehicle: Klucel (hydroxypropylcellulose) (HPC), higher = longer survival",98 % of control
same,T/C,"endpoint: median survival time, dose: 25.0 mg/kg/injection, schedule: Q04DX003 (ip), vehicle: Klucel (hydroxypropylcellulose) (HPC), higher = longer survival",98 % of control
same,T/C,"endpoint: median survival time, dose: 25.0 mg/kg/injection, schedule: Q04DX005 (ip), vehicle: Klucel (hydroxypropylcellulose) (HPC), higher = longer survival",103 % of control
same,T/C,"endpoint: median survival time, dose: 30.0 mg/kg/injection, schedule: Q01DX011 (ip), vehicle: carboxymethylcellulose (CMC), higher = longer survival",105 % of control
same,T/C,"endpoint: median survival time, dose: 50.0 mg/kg/injection, schedule: Q01DX005 (ip), vehicle: Klucel (hydroxypropylcellulose) (HPC), higher = longer survival",105 % of control
same,T/C,"endpoint: median survival time, dose: 50.0 mg/kg/injection, schedule: Q01DX009 (ip), vehicle: Klucel (hydroxypropylcellulose) (HPC), higher = longer survival",94 % of control
same,T/C,"endpoint: median survival time, dose: 50.0 mg/kg/injection, schedule: Q01DX011 (ip), vehicle: Klucel (hydroxypropylcellulose) (HPC), higher = longer survival",113 % of control
same,T/C,"endpoint: median survival time, dose: 50.0 mg/kg/injection, schedule: Q04DX003 (ip), vehicle: Klucel (hydroxypropylcellulose) (HPC), higher = longer survival",96 % of control
same,T/C,"endpoint: median survival time, dose: 50.0 mg/kg/injection, schedule: Q04DX005 (ip), vehicle: Klucel (hydroxypropylcellulose) (HPC), higher = longer survival",100 % of control
same,T/C,"endpoint: median survival time, dose: 100.0 mg/kg/injection, schedule: Q01DX001 (ip), vehicle: other, higher = longer survival",89 % of control
same,T/C,"endpoint: median survival time, dose: 100.0 mg/kg/injection, schedule: Q01DX001 (ip), vehicle: steriod suspending solution, higher = longer survival",93 % of control
same,T/C,"endpoint: median survival time, dose: 100.0 mg/kg/injection, schedule: Q01DX005 (ip), vehicle: Klucel (hydroxypropylcellulose) (HPC), higher = longer survival",119 % of control
same,T/C,"endpoint: median survival time, dose: 100.0 mg/kg/injection, schedule: Q04DX003 (ip), vehicle: Klucel (hydroxypropylcellulose) (HPC), higher = longer survival",90 % of control and 108 % of control (2×)
same,T/C,"endpoint: median survival time, dose: 100.0 mg/kg/injection, schedule: Q04DX005 (ip), vehicle: Klucel (hydroxypropylcellulose) (HPC), higher = longer survival",101 % of control
same,T/C,"endpoint: median survival time, dose: 200.0 mg/kg/injection, schedule: Q01DX001 (ip), vehicle: other, higher = longer survival",86 % of control
same,T/C,"endpoint: median survival time, dose: 200.0 mg/kg/injection, schedule: Q01DX001 (ip), vehicle: steriod suspending solution, higher = longer survival",93 % of control
same,T/C,"endpoint: median survival time, dose: 200.0 mg/kg/injection, schedule: Q04DX003 (ip), vehicle: Klucel (hydroxypropylcellulose) (HPC), higher = longer survival",111 % of control and 115 % of control and 117 % of control
same,T/C,"endpoint: median survival time, dose: 200.0 mg/kg/injection, schedule: Q04DX005 (ip), vehicle: Klucel (hydroxypropylcellulose) (HPC), higher = longer survival",115 % of control
same,T/C,"endpoint: median survival time, dose: 400.0 mg/kg/injection, schedule: Q01DX001 (ip), vehicle: other, higher = longer survival",76 % of control
same,T/C,"endpoint: median survival time, dose: 400.0 mg/kg/injection, schedule: Q04DX003 (ip), vehicle: Klucel (hydroxypropylcellulose) (HPC), higher = longer survival",123 % of control
same,T/C,"endpoint: median survival time, dose: 800.0 mg/kg/injection, schedule: Q01DX001 (ip), vehicle: other, higher = longer survival",78 % of control
same,T/C,"endpoint: median survival time, dose: 800.0 mg/kg/injection, schedule: Q01DX001 (ip), vehicle: steriod suspending solution, higher = longer survival",87 % of control
same,T/C,"endpoint: median survival time, dose: 800.0 mg/kg/injection, schedule: Q04DX003 (ip), vehicle: Klucel (hydroxypropylcellulose) (HPC), higher = longer survival",29 % of control
COc1ccc(OC)c(/C=C/c2ccnc3ccccc23)c1,T/C,"endpoint: mean tumor weight (est.), dose: 50.0 mg/kg/injection, schedule: Q01DX011 (ip), vehicle: saline with Tween-80, higher = larger tumour",84 % of control
same,T/C,"endpoint: mean tumor weight (est.), dose: 100.0 mg/kg/injection, schedule: Q01DX011 (ip), vehicle: saline with Tween-80, higher = larger tumour",75 % of control
same,T/C,"endpoint: mean tumor weight (est.), dose: 400.0 mg/kg/injection, schedule: Q01DX011 (ip), vehicle: saline with Tween-80, higher = larger tumour",77 % of control
same,T/C,"endpoint: median survival time, dose: 50.0 mg/kg/injection, schedule: Q01DX011 (ip), vehicle: saline with Tween-80, higher = longer survival",100 % of control
same,T/C,"endpoint: median survival time, dose: 100.0 mg/kg/injection, schedule: Q01DX011 (ip), vehicle: saline with Tween-80, higher = longer survival",102 % of control
